Columns and labels:
[1] = target: T1, human VR1 vanilloid receptors (Homo sapiens, UniProt Q8NER1); test: [3H] RTX binding assay, hVR1 membranes from transfected HEK293 cells; conditions: human VR1, read-out: Receptor binding Ki
T1 construct: expressed in transfected cells; host or cells: HEK293
Experimental: Compounds of the present invention were tested for their ability to inhibit the binding of [^3H] RTX to hVR1 receptors in a [^3H] RTX binding assay as previously described (Zhang, Sui-Po. Improved ligand binding assays for vanilloid receptors. PCT Int. Appl. (2002), 29 pp. CODEN: PIXXD2 WO 0233411 A1 20020425 AN 2002:315209; Grant, Elfrida R.; Dubin, Adrienne E.; Zhang, Sui-Po; Zivin, Robert A.; Zhong, Zhong Simultaneous intracellular calcium and sodium flux imaging in human vanilloid receptor 1 (VR1)-transfected human embryonic kidney cells: a method to resolve ionic dependence of VR1-mediated cell death. Journal of Pharmacology and Experimental Therapeutics (2002), 300(1), 9–17.)
HEK293 cells were transfected with human VR1 vanilloid receptors and washed with Hank's Balanced Salt Solution, dissociated with cell dissociation buffer (Sigma), and then centrifuged at 1000×g for 5 min. Cell pellets were homogenized in cold 20 mM HEPES buffer, pH 7.4, containing 5.8 mM NaCl, 320 mM sucrose, 2 mM MgCl2, 0.75 CaCl2 and 5 mM KCl and centrifuged at 1000×g for 15 min. The resultant supernate was then centrifuged at 40000×g for 15 min. The pelleted membranes were kept in an −80° C. freezer.
Approximately 120 μg protein/ml from membranes were incubated with indicated concentrations of [^3H] RTX in 0.5 ml of the HEPES buffer (pH 7.4) containing 0.25 mg/mL fatty acid-free bovine serum albumin at 37° C. for 60 min. The reaction mixture was then cooled to 4° C., 0.1 mg α1-acid glycoprotein added to each sample and incubated at 4° C. for 15 min. The samples were centrifuged at 18500×g for 15 min. The tip of the microcentrifuge tube containing the pellet was cut off. Bound radioactivity was quantified by scintillation counting. Non-specific binding was tested in the presence of 200 nM unlabeled RTX.

[2] = tested on: Carrageenan paw-induced thermal hyperalgesia; test: Carrageenan paw-induced thermal hyperalgesia; type: in vivo; conditions: rat, po, reversal of carrageenan thermal hyperalgesia; read-out: CgHP ED50
Experimental: Each rat is placed on a heated surface (51° C.) in order to measure the time necessary to elicit a response, and an initial (baseline) response time to a thermal stimuli was recorded for each animal. A response is defined as any shaking, licking, or tucking of the treated paw or jumping. Animals not treated with a test compound respond in approximately 20 seconds. The maximal exposure time permitted is 60 seconds to prevent tissue damage. Rats were injected with an irritant (e.g., 1% carrageenan solution in 0.9% saline) subcutaneously into the sub-plantar tissue of the left hind paw to stimulate an acute inflammatory reaction.
Two hours later, the response time of the animal to the thermal stimulus was evaluated and compared to the animal's baseline response time. This shorter response time was recorded as percent hyperalgesia (% H). A cut-off value for % H (usually 75%) was used during analysis to ensure that the animals were hyperalgesic. Animals were then dosed with test drug or vehicle.
At some time(s) later (typically 45 and 90 minutes), the response time of the animal to the thermal stimulus was again evaluated. For each time point, a percent reversal of hyperalgesia (% R) was calculated using the following formula: % R=(Drug Latency−Carrageenan latency)/(Baseline latency−Carrageenan latency). ED50 values were calculated from % R obtained at several drug doses.

[3] = target: T2, human VR1 (Homo sapiens, UniProt Q8NER1); test: Human VR1 functional assay (FLIPR intracellular Ca2+, capsaicin challenge); type: cell-based; conditions: read-out: In vitro functional assays hIC50 or EC50
T2 construct: expressed in transfected cells; host or cells: HEK293
T2 sequence (Q8NER1 whole entry): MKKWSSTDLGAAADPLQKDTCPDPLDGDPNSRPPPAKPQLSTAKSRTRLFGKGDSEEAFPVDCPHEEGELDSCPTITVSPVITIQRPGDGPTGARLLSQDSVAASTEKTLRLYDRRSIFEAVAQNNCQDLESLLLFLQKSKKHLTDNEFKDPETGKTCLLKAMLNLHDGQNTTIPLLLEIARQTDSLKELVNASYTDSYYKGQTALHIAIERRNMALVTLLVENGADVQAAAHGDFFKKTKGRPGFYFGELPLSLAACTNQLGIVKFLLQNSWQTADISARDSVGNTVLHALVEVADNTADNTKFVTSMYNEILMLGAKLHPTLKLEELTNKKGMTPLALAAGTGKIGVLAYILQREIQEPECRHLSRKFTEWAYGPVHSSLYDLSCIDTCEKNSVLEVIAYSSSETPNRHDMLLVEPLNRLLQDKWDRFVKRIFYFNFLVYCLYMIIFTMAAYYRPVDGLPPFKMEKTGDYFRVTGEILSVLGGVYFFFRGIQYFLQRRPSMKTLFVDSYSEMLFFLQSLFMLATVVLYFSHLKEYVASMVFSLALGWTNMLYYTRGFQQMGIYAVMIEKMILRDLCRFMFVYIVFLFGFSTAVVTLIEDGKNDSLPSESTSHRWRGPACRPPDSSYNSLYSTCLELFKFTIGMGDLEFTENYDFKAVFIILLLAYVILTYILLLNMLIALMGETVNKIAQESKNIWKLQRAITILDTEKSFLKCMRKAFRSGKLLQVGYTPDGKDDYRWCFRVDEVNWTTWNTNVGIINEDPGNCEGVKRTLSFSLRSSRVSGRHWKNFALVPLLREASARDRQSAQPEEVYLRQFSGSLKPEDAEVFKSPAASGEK
Experimental: The functional activity of the test compounds was determined by measuring changes in intracellular calcium concentration using a Ca^++-sensitive fluorescent dye and FLIPR™ technology.
HEK293 Cells expressing human VR1 were grown on poly-D-lysine coated 96 well black-walled plates (BD 354640) and 2 days later loaded with Fluo-3/AM for 1 hour and subsequently tested for agonist-induced increases in intracellular Ca^2+ levels using FLIPR™ technology. […] EC50 or IC50 values were determined from dose-response studies.

[4] = tested on: capsaicin-induced guinea pig bronchial ring contraction; test: Isolated guinea pig bronchial rings, capsaicin-induced contraction (organ bath)
Experimental: Aminotetralin VR1 antagonists were tested for their potency to block capsaicin-induced guinea pig bronchial ring contraction in a standard in vitro organ bath assay [Tucker, 2001]. Two mm rings of bronchial tissue obtained from male guinea pigs (325 g) were suspended in normal Krebs solution between two wire hooks under an initial loading tension of 1 gram. The saline was maintained in a 5% CO2 and 95% O2 atmosphere at 37° C. in the presence of indomethacin (5 μM). A sub-maximal dose of 5-Methylfurmethide (5Mef, 1 μM) was added to each tissue to determine responsiveness using an isometric force transducer. After washout, tissues were exposed to compounds or vehicle for 30 min, treated with thiorphan (10 μM, 5% Na2CO3), and primed using KCl in increasing linear concentrations from 1 mM at 1 mM intervals until a slight increase in muscle tone was induced (˜1% of 5Mef response). […] The dose response curve was calculated as % max of the 5-Mef response and estimated pA2 were determined [Tucker, 2001]).

[5] = tested on: DSS-induced acute colitis; test: Rodent colitis model (5% dextran sulfate sodium); type: in vivo, mice or rats; conditions: preliminary study
Experimental: 5% Dextran Sulfate Sodium administered in the drinking water of mice or rats for 7 days results in an acute colitis with some morphological changes that are similar to human ulcerative colitis. Among those changes are colon shortening, accumulation of neutrophils and other inflammatory cells, decreases in colon weight, decreases in body weight, tissue damage in the colon, and loss of stool consistency.
Each animal is dosed daily in the morning and late afternoon for BID dosing. Treatment with vehicle or test compound begins on day 0, immediately after initial body weights are taken, and ends on day 6. Water bottles are removed and replaced by graduated water bottles containing 5% DSS in indicated groups. Tap water remains on control groups only. Sufficient DSS drinking water is placed in graduated water bottles and refilled each day to monitor daily output. Animals are weighed daily from day 0 to 7, and animal condition and the consistency of stools recorded. Following sacrifice of the animal on day 7, the colon is surgically removed from the distal rectum (anus) to the cecal-colonic juncture and the colon length and weight measured. Colon slices may be obtained for histological evaluation. […] Water consumption and body weights are measured daily. […] An increase in myeloperoxidase activity occurs in this model and is evaluated separately.

[6] = target: T3, VR1 (rat spinal cord) (Rattus norvegicus, UniProt O35433); test: [3H]-RTX binding assay using rat tissue (spinal cord membranes); conditions: cells marked (rat), read-out: Receptor binding Ki (rat)
T3 construct: Rat spinal cord was homogenized twice with a Polytron; from tissue; host or cells: rat spinal cord membranes
T3 sequence (O35433 whole entry): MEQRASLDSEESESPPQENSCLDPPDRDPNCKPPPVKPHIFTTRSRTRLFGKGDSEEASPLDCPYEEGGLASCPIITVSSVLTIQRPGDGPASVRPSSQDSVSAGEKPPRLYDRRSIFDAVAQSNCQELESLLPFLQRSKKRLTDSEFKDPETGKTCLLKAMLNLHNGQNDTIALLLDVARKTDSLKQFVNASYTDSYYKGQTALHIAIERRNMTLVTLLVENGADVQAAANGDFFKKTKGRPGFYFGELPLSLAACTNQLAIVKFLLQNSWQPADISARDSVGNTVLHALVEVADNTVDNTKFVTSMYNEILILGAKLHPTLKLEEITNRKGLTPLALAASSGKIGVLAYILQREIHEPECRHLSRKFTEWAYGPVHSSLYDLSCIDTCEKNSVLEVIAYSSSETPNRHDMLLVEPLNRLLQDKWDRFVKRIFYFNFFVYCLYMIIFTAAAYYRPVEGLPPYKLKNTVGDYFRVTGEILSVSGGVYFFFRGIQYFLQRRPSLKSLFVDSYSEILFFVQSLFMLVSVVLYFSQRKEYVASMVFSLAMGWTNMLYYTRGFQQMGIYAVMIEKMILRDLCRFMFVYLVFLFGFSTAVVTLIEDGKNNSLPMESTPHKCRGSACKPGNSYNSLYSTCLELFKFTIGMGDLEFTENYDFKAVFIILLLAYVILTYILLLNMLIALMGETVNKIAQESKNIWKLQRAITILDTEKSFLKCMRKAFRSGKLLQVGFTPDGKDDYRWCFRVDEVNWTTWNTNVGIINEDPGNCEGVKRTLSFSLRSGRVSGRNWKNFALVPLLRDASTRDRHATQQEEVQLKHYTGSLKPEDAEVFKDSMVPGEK
Experimental: Alternatively, a binding assay using rat tissue was used. Rat spinal cord was homogenized twice with a Polytron and centrifuged at 3000 rpm for 10 min in HEPES buffer containing 20 mM HEPES, pH 7.4, NaCl 5.8 mM, sucrose 320 mM, MgCl2 2 mM, CaCl2 0.75 mM and KCl 5 mM. The supernatant was then centrifuged at 18,000 rpm for 20 min. The pellet was saved in a tube and 10 ml assay buffer was added into the tube. The pellet and buffer were mixed with a Polytron. The assay contained 120 μg/ml membrane protein and 0.3–0.6 nM [^3H]-RTX (NEN, Boston) in a total volume of 0.5 ml HEPES buffer. Following-incubation for 60 min at 37 C, the samples were cooled down on ice, and 100 mg of α-acid glycoprotein were added into the samples. After centrifugation at 13,000 rpm for 15 min, the supernatant was aspirated and the tips of tubes were cut off and placed into 6 ml vials. Data were calculated according to the equation: % inhibition=(total binding−binding)*100/(total binding−non specific binding). Ki value values were calculated using a Prism program.

[7] = target: T4, VR1 expressed endogenously on small rat dorsal root ganglion (DRG) neurons (Rattus norvegicus, UniProt O35433); test: Electrophysiologic functional assay using dissociated rat DRG cells; type: cell-based; conditions: read-out: In vitro functional assays Estimated pA2 (rat) (converted)
T4 construct: VR1 expressed endogenously on small rat dorsal root ganglion (DRG) neurons; endogenous in cells; host or cells: dissociated rat DRG neurons
T4 sequence (O35433 whole entry): as above
Experimental: Compounds are tested for their activity on VR1 expressed endogenously on small rat dorsal root ganglion (DRG) neurons. DRG neurons from normal rats were dissociated (see methods in Chaplan et al., 2003) and whole cell currents mediated by VR1 were recorded using the whole cell patch clamp technique.

[8] = tested on: capsaicin-induced cough responses; test: Capsaicin-induced cough (antitussive efficacy); type: in vivo; conditions: guinea pig, 25 mg/kg IP at -60 min; vehicle 3.0±0.5; P<0.001
Experimental: The antitussive activity of intraperitoneally (IP) administered compound is assessed at a single dose level against casaicin-induced cough responses as compared to positive and vehicle controls. Thirty-six male Dunkin-Hartley guinea pigs (295–590 g, mean 425 g) are randomly allocated to one of three groups (n=12 guinea pigs per group). […] Guinea pigs are dosed IP at −60 min with vehicle (15% Solutol in 5% dextrose solution); the positive control codeine (25 mg/kg), or test compound (20 mg/kg in 15% Solutol in 5% dextrose solution). Individual guinea pigs are placed in an exposure chamber with an airflow of 3 L/min at −10 min to acclimatize. […] The mean±SEM number of capsaicin-induced cough responses recorded in vehicle pre-treated guinea pigs was 3.0±0.5. […] ANOVA statistical analysis was used to determine the level of significance.

T1 sequence (Q8NER1 whole entry): as the sequence (Q8NER1 whole entry) above

For `CC(C)(C)c1ccc(CNC(=O)Nc2cccc3cnccc23)cc1` [Compound 33], the Ki [1] was 0.26 nM, the ED50 [2] was 0.276 mg/kg and the IC50 or EC50 [3] was 2.7 nM. For the same compound, the “antagonist Kb (from pA2) against capsaicin-induced contraction” value [4] was 13 nM, the “protection against colon shortening” value [5] was “did not protect” and the “protection against colon weight loss” value [5] was “did not protect”.
In the case of `O=C(NCc1ccc(-c2cccs2)s1)Nc1cccc2ccc(O)cc12` [Compound 39], the Ki [6] is reported as 382 nM.
For `O=C(NCc1ccc(Cl)c(C(F)(F)F)c1)Nc1cccc2ccc(O)cc12` [Compound 57, 1-(4-Chloro-3-trifluoromethyl-benzyl)-3-(7-hydroxy-naphthalen-1-yl)-urea], the Ki [1] was 1.14 nM, the Kb [7] was about 10 nM and the ED50 [2] was 0.354 mg/kg.
With `COc1ccc2c3c1O[C@H]1[C@@H](O)C=C[C@H]4[C@@H](C2)N(C)CC[C@@]341` [codeine] the “number of capsaicin-induced cough responses (mean±SEM)” value [8] was 0.58±0.15 coughs.

From US7183411B2, “Naphthol, quinoline and isoquinoline-derived urea modulators of vanilloid VR1 receptor” (Janssen Pharmaceutica N.V., priority 2002, dated 2007)
